Laboratory results from the NIST ThermoML archive (doi:10.1016/j.fluid.2016.08.014).
Numbers after ± are expanded uncertainties.

Columns and labels:
[1] = Liquid, Vibrating tube method
[2] = refractive index (Na D-line) (dimensionless); conditions: 298.15 K; 101.33 kPa; Liquid; Standard Abbe refractometry

Structure (SMILES): CN(C)C=O [dimethylformamide]
- mass density ([1]; 293.15 K, 100 kPa): 949 ± 1 kg/m3
- mass density ([1]; 293.15 K, 2500 kPa): 950 ± 1 kg/m3
- mass density ([1]; 293.15 K, 5100 kPa): 952 ± 1 kg/m3
- mass density ([1]; 293.15 K, 10100 kPa): 955 ± 1 kg/m3
- mass density ([1]; 293.15 K, 15100 kPa): 958 ± 1 kg/m3
- mass density ([1]; 293.15 K, 20100 kPa): 960 ± 1 kg/m3
- mass density ([1]; 293.15 K, 25000 kPa): 963 ± 1 kg/m3
- mass density ([1]; 293.15 K, 30300 kPa): 966 ± 1 kg/m3
- mass density ([1]; 298.15 K, 101.33 kPa): 943.978 ± 4 kg/m3
- mass density ([1]; 303.15 K, 100 kPa): 939 ± 1 kg/m3
- mass density ([1]; 303.15 K, 2500 kPa): 941 ± 1 kg/m3
- mass density ([1]; 303.15 K, 5100 kPa): 943 ± 1 kg/m3
- mass density ([1]; 303.15 K, 10000 kPa): 940 ± 10 kg/m3
- mass density ([1]; 303.15 K, 15100 kPa): 949 ± 1 kg/m3
- mass density ([1]; 303.15 K, 20100 kPa): 951 ± 1 kg/m3
- mass density ([1]; 303.15 K, 25000 kPa): 954 ± 1 kg/m3
- mass density ([1]; 303.15 K, 30100 kPa): 957 ± 1 kg/m3
- mass density ([1]; 313.15 K, 100 kPa): 930 ± 1 kg/m3
- mass density ([1]; 313.15 K, 2600 kPa): 931 ± 1 kg/m3
- mass density ([1]; 313.15 K, 5100 kPa): 933 ± 1 kg/m3
- mass density ([1]; 313.15 K, 10000 kPa): 936 ± 1 kg/m3
- mass density ([1]; 313.15 K, 15100 kPa): 939 ± 1 kg/m3
- mass density ([1]; 313.15 K, 20100 kPa): 942 ± 1 kg/m3
- mass density ([1]; 313.15 K, 25000 kPa): 945 ± 1 kg/m3
- mass density ([1]; 313.15 K, 30100 kPa): 948 ± 1 kg/m3
- mass density ([1]; 323.15 K, 100 kPa): 920 ± 1 kg/m3
- mass density ([1]; 323.15 K, 2500 kPa): 922 ± 1 kg/m3
- mass density ([1]; 323.15 K, 5100 kPa): 924 ± 1 kg/m3
- mass density ([1]; 323.15 K, 10000 kPa): 927 ± 1 kg/m3
- mass density ([1]; 323.15 K, 15100 kPa): 930 ± 1 kg/m3
- mass density ([1]; 323.15 K, 20100 kPa): 934 ± 1 kg/m3
- mass density ([1]; 323.15 K, 25100 kPa): 937 ± 1 kg/m3
- mass density ([1]; 323.15 K, 30400 kPa): 940 ± 1 kg/m3
- mass density ([1]; 333.15 K, 200 kPa): 910 ± 1 kg/m3
- mass density ([1]; 333.15 K, 2600 kPa): 912 ± 1 kg/m3
- mass density ([1]; 333.15 K, 5000 kPa): 914 ± 1 kg/m3
- mass density ([1]; 333.15 K, 10200 kPa): 918 ± 1 kg/m3
- mass density ([1]; 333.15 K, 15000 kPa): 921 ± 1 kg/m3
- mass density ([1]; 333.15 K, 20300 kPa): 925 ± 1 kg/m3
- mass density ([1]; 333.15 K, 25100 kPa): 928 ± 1 kg/m3
- mass density ([1]; 333.15 K, 30200 kPa): 931 ± 1 kg/m3
- mass density ([1]; 343.15 K, 200 kPa): 900 ± 1 kg/m3
- mass density ([1]; 343.15 K, 2500 kPa): 903 ± 1 kg/m3
- mass density ([1]; 343.15 K, 5200 kPa): 905 ± 1 kg/m3
- mass density ([1]; 343.15 K, 10000 kPa): 908 ± 1 kg/m3
- mass density ([1]; 343.15 K, 15000 kPa): 912 ± 1 kg/m3
- mass density ([1]; 343.15 K, 20100 kPa): 916 ± 1 kg/m3
- mass density ([1]; 343.15 K, 25100 kPa): 919 ± 1 kg/m3
- mass density ([1]; 343.15 K, 30400 kPa): 922 ± 1 kg/m3
- mass density ([1]; 353.15 K, 200 kPa): 890 ± 1 kg/m3
- mass density ([1]; 353.15 K, 2500 kPa): 893 ± 1 kg/m3
- mass density ([1]; 353.15 K, 5100 kPa): 895 ± 1 kg/m3
- mass density ([1]; 353.15 K, 10100 kPa): 899 ± 1 kg/m3
- mass density ([1]; 353.15 K, 15000 kPa): 903 ± 1 kg/m3
- mass density ([1]; 353.15 K, 20100 kPa): 907 ± 1 kg/m3
- mass density ([1]; 353.15 K, 25100 kPa): 910 ± 1 kg/m3
- mass density ([1]; 353.15 K, 30200 kPa): 914 ± 1 kg/m3
- mass density ([1]; 363.15 K, 200 kPa): 881 ± 1 kg/m3
- mass density ([1]; 363.15 K, 2600 kPa): 883 ± 1 kg/m3
- mass density ([1]; 363.15 K, 5000 kPa): 885 ± 1 kg/m3
- mass density ([1]; 363.15 K, 10100 kPa): 890 ± 1 kg/m3
- mass density ([1]; 363.15 K, 15100 kPa): 894 ± 1 kg/m3
- mass density ([1]; 363.15 K, 20100 kPa): 897 ± 1 kg/m3
- mass density ([1]; 363.15 K, 25100 kPa): 901 ± 1 kg/m3
- mass density ([1]; 363.15 K, 30100 kPa): 905 ± 1 kg/m3
- mass density ([1]; 373.15 K, 100 kPa): 871 ± 1 kg/m3
- mass density ([1]; 373.15 K, 2600 kPa): 873 ± 1 kg/m3
- mass density ([1]; 373.15 K, 5000 kPa): 876 ± 1 kg/m3
- mass density ([1]; 373.15 K, 10100 kPa): 880 ± 1 kg/m3
- mass density ([1]; 373.15 K, 15300 kPa): 885 ± 1 kg/m3
- mass density ([1]; 373.15 K, 20100 kPa): 888 ± 1 kg/m3
- mass density ([1]; 373.15 K, 25100 kPa): 892 ± 1 kg/m3
- mass density ([1]; 373.15 K, 30100 kPa): 896 ± 1 kg/m3
- mass density ([1]; 383.15 K, 100 kPa): 860 ± 1 kg/m3
- mass density ([1]; 383.15 K, 2500 kPa): 863 ± 1 kg/m3
- mass density ([1]; 383.15 K, 5100 kPa): 866 ± 1 kg/m3
- mass density ([1]; 383.15 K, 10000 kPa): 870 ± 1 kg/m3
- mass density ([1]; 383.15 K, 15100 kPa): 875 ± 1 kg/m3
- mass density ([1]; 383.15 K, 20200 kPa): 880 ± 1 kg/m3
- mass density ([1]; 383.15 K, 25100 kPa): 884 ± 1 kg/m3
- mass density ([1]; 383.15 K, 30300 kPa): 888 ± 1 kg/m3
- mass density ([1]; 393.15 K, 100 kPa): 851 ± 1 kg/m3
- mass density ([1]; 393.15 K, 2600 kPa): 853 ± 1 kg/m3
- mass density ([1]; 393.15 K, 5200 kPa): 856 ± 1 kg/m3
- mass density ([1]; 393.15 K, 10000 kPa): 861 ± 1 kg/m3
- mass density ([1]; 393.15 K, 15000 kPa): 866 ± 1 kg/m3
- mass density ([1]; 393.15 K, 20100 kPa): 870 ± 1 kg/m3
- mass density ([1]; 393.15 K, 25100 kPa): 875 ± 1 kg/m3
- mass density ([1]; 393.15 K, 30400 kPa): 879 ± 1 kg/m3
- mass density ([1]; 403.15 K, 100 kPa): 840 ± 1 kg/m3
- mass density ([1]; 403.15 K, 2600 kPa): 843 ± 1 kg/m3
- mass density ([1]; 403.15 K, 5000 kPa): 846 ± 1 kg/m3
- mass density ([1]; 403.15 K, 10100 kPa): 851 ± 1 kg/m3
- mass density ([1]; 403.15 K, 15100 kPa): 856 ± 1 kg/m3
- mass density ([1]; 403.15 K, 20100 kPa): 861 ± 1 kg/m3
- mass density ([1]; 403.15 K, 25100 kPa): 866 ± 1 kg/m3
- mass density ([1]; 403.15 K, 30300 kPa): 870 ± 1 kg/m3
- mass density ([1]; 413.15 K, 200 kPa): 830 ± 1 kg/m3
- mass density ([1]; 413.15 K, 2500 kPa): 833 ± 1 kg/m3
- mass density ([1]; 413.15 K, 5000 kPa): 836 ± 1 kg/m3
- mass density ([1]; 413.15 K, 10200 kPa): 842 ± 1 kg/m3
- mass density ([1]; 413.15 K, 14900 kPa): 847 ± 1 kg/m3
- mass density ([1]; 413.15 K, 20000 kPa): 852 ± 1 kg/m3
- mass density ([1]; 413.15 K, 25200 kPa): 857 ± 1 kg/m3
- mass density ([1]; 413.15 K, 30000 kPa): 861 ± 1 kg/m3
- refractive index [2]: 1.42844 ± 0.00031
